Marks after values point to notes of the source that are not given here.
Legend:
[1] = system: MRC-5 human lung fibroblast cell line; test: MTT cytotoxicity assay in MRC-5; assay type: cell-based
Experimental: (§1) The in vitro cytotoxic activity of the novel water-soluble amino acid derivatives of HQCl and their RhCp* and RuCym complexes was measured by the thiazolyl blue tetrazolium bromide (MTT) assay in two human colon adenocarcinoma cell lines (Colo-205 and Colo-320) and in one non-tumoral human lung fibroblast cell line (MRC-5). The results are given in terms of IC50 values (Table 1). Colo-205 is a drug-sensitive cell line with a normal ABCB1 transporter expression pattern, while Colo-320 is multidrug-resistant and overexpresses the ABCB1 system.
(§2) All cell culture reagents were obtained from Sigma-Aldrich and plasticware from Sarstedt (Nümbrecht, Germany). Human colonic Colo-205 doxorubicin-sensitive and Colo-320/MDR-LRP multidrug-resistant adenocarcinoma and MRC-5 human embryonal lung fibroblast cell lines were purchased from LGC Promochem, Teddington, UK. The colonic adenocarcinoma cells were cultured in Roswell Park Memorial Institute (RPMI) 1640 medium supplemented with 10% heat-inactivated fetal bovine serum, 2 mM L-glutamine, 1 mM sodium pyruvate and […]. The MRC-5 cell line was cultured in Eagle’s Minimal Essential Medium (EMEM, Sigma-Aldrich, St. Louis, MO, USA) supplemented with a non-essential amino acid (NEAA) mixture (Sigma-Aldrich, St. Louis, MO, USA) a selection of vitamins, 10% heat-inactivated foetal bovine serum (FBS), 2 mM L-glutamine (Sigma-Aldrich, St. Louis, MO, USA), 1 mM Na-pyruvate (Sigma-Aldrich, St. Louis, MO, USA), nystatin (Sigma-Aldrich, St. Louis, MO, USA) and a penicillin-streptomycin mixture (Sigma-Aldrich, St. Louis, MO, USA) in con-centrations of 100 U/L and 10 mg/L, respectively. The cells were incubated at 37 °C, in a 5% CO2, 95% air atmosphere. All cell lines were detached with Trypsin-Versene (EDTA) solution for 5 min at 37 °C.
(§3) The tested compounds were dissolved in 10% (v/v) DMSO/H2O using 4 mM concentration. Doxorubicin (Merck, Darmstadt, Germany) was used as a positive control. Then stock solutions were diluted in complete culture medium, and two-fold serial dilutions of compounds were prepared in 100 μL of the medium, horizontally. The semi-adherent colonic adenocarcinoma cells were treated with Trypsin-Versene (EDTA) solution. They were adjusted to a density of 1 × 10^4 cells in 100 μL of RPMI 1640 or EMEM medium and were added to each well, with the exception of the medium control wells. The final volume of the wells containing compounds and cells was 200 μL. The plates containing Colo-205, Colo-320 or MRC-5 cells were incubated at 37 °C for 72 h; at the end of the incubation period, 20 μL of MTT solution (from a stock solution of 5 mg/mL) were added to each well. After incubation at 37 °C for 4 h, 100 μL of SDS solution (10% in 0.01 M HCI) were added to each well, and the plates were further incubated at 37 °C overnight. […] The IC50 values were obtained from at least 3 independent experiments.

[2] = system: Colo-320 human colon adenocarcinoma cell line (multidrug-resistant); test: MTT cytotoxicity assay in Colo-320; assay type: cell-based; details: 72 h incubation
Experimental: as §1, §2, §3

[3] = Proton dissociation and H2O/Cl- exchange constants of the complexes (UV-vis, 1H NMR); assay type: physicochemical; details: T = 25.0 °C; for logK′ (H2O/Cl−) conditional exchange constant: pH 7.4; for pKa1 of the complex / pKa2 of the complex: I = 0.2 M KNO3
Experimental: In the basic pH range, both the UV-vis and ^1H NMR spectra recorded for the [M(arene)(H2O)3]^2+–ligand (1:1) systems reveal the further chemical transformation of the [M(arene)(HQCl-D-(h)ProH−1)(H2O)]^+ species. […] It should be noted that peaks of the p-cymene CH3 groups are doubled at pH > 10 (Figure S21b), indicating the loss of their symmetry due to the formation of the hydroxido complex, which probably blocks the free rotation of the arene ligand. Two pKa values were determined by both methods for each RuCym complex that is in good agreement (Table 3).
These deprotonation processes take place at somewhat higher pH in the case of the RhCp* complexes compared to the RuCym compounds; however, other differences were also observed.
Thus, only one pKa value could be computed (Table 3), which is rather assigned to the H2O → OH^− process. The peaks of the protons in the ^1H NMR spectra located nearby the metal center (both 8-hydroxyquinoline CH and CH3 protons of RhCp*) and the peaks of the homoproline moiety are shifted by increasing the pH (Figure S22b,c). […] Due to this side-reaction, no pKa values were calculated from the ^1H NMR spectra.
Based on the determined pKa values of the complexes (Table 3), it can be concluded that at physiological pH all of them are present predominantly in their [M(arene)(HQCl-D-(h)ProH−1)(H2O)]^+ form. However, in the presence of chloride ions, the exchange of the aqua ligand to the halide ligand is possible. The water/chloride co-ligand exchange process was monitored spectrophotometrically at pH 7.4, as it was performed for other RuCym and RhCp* complexes in our previous works. […] It can be concluded that the RhCp* complexes have stronger chloride ion affinity. The coordination of the chloride ion changes the charge of the complex; thus, it will also influence lipophilicity. In order to characterize the hydrophilic/lipophilic character of the complexes, n-octanol/buffer aqueous solution partitioning was performed at pH 7.4. The measurements were performed at three kinds of chloride ion concentrations regarding different biofluids (4, 24 and 100 mM for nucleus, cytosol and blood, respectively). The calculated logD7.4 values can be found in Figure 8.
Agilent Cary 8454 diode array spectrophotometer was utilized to obtain UV-vis spectra in the wavelength range 190–1100 nm. The path length (ℓ) was 1 cm in most cases (the actual ℓ is always indicated in the legends of the figures). The concentrations of the ligands and complexes were between 88 and 240 µM. For HSA and ct-DNA containing samples, complex concentrations were 100 µM, and 0.5 and 2 equiv. biomolecule were added for kinetic studies, respectively. Individual samples contained 0–20 µM HSA and 0–1.75 mM (nucleotide) ct-DNA. Spectra were always background corrected. The computer program HypSpec was used to obtain stability constants.
Bruker Avance III HD Ascend 500 Plus instrument (Billerica, MA, USA) was used for NMR studies. ^1H NMR spectroscopic measurements were carried out with a WATERGATE water suppression pulse scheme in the presence of 10% (v/v) D2O in most cases. DSS internal standard was added to samples to obtain reference peaks. Complex concentrations were 0.5 mM or 1.0 mM, and 0.5 equiv. HSA was added. ^1H NMR titrations were carried out in the presence of 0.2 M KNO3. With the FHA model peptide, the measurements were performed at 0.5 or 1 mM metal complex concentrations, and 1:1, 1:2 or 2:1 peptide-to-metal complex ratios were applied. The computer program HypSpec was used to obtain stability constants.

Row | SMILES | IC50 ([1]; Homo sapiens, MRC5, 72 h incubation) [µM] | IC50 [2] [µM] | IC50 ([1]; 72 h incubation) [µM] | logK′ (H2O/Cl−) conditional exchange constant ([3]; UV-vis) | pKa1 of the complex ([3]; UV-vis, chloride-free) | pKa1 of the complex ([3]; 1H NMR) | pKa2 of the complex ([3]; 1H NMR) | pKa2 of the complex ([3]; UV-vis, chloride-free)
1 | O=C(O)[C@H]1CCCCN1Cc1cc(Cl)c2cccnc2c1O [HQCl-D-hPro, (R)-5-chloro-7-((homoproline-1-yl)methyl)8-hydroxyquinoline] | 3.63 ± 0.1 | – | – | – | – | – | – | –
2 | Cc1c(C)c(C)[c-](C)c1C.O=C(O)[C@H]1CCC[NH+]1Cc1cc(Cl)c2cccnc2c1[O-].[Cl-].[Cl-].[Rh+3] [RhCp*–HQCl-D-Pro, [RhCp*(HQCl-D-Pro)Cl]Cl] | – | 34.3 ± 1 | 82.1 ± 5.1 | 1.72 ± 0.01 | 10.08 ± 0.02 | – | – | –
3 | Cc1c(C)c(C)[c-](C)c1C.O=C(O)[C@H]1CCCC[NH+]1Cc1cc(Cl)c2cccnc2c1[O-].[Cl-].[Cl-].[Rh+3] [RhCp*–HQCl-D-hPro, [RhCp*(HQCl-D-hPro)Cl]Cl] | – | 18.9 ± 0.54 | 37.6 ± 2.3 | 1.79 ± 0.01 | 10.11 ± 0.02 | 9.82 ± 0.13 ^a | 10.06 ± 0.06 ^b | –
4 | Cc1ccc(C(C)C)cc1.O=C(O)[C@H]1CCC[NH+]1Cc1cc(Cl)c2cccnc2c1[O-].[Cl-].[Cl-].[Ru+2] [RuCym–HQCl-D-Pro, [RuCym(HQCl-D-Pro)Cl]Cl] | – | > 100 | > 100 | 1.18 ± 0.01 | 8.96 ± 0.01 | 9.02 ± 0.07 | 10.69 ± 0.06 | 10.67 ± 0.01
5 | Cc1ccc(C(C)C)cc1.O=C(O)[C@H]1CCCC[NH+]1Cc1cc(Cl)c2cccnc2c1[O-].[Cl-].[Cl-].[Ru+2] [RuCym–HQCl-D-hPro, [RuCym(HQCl-D-hPro)Cl]Cl] | – | > 100 | > 100 | 1.28 ± 0.01 | 8.78 ± 0.01 | 8.77 ± 0.05 | 10.13 ± 0.04 | 10.03 ± 0.02

— article PMC8570331, “8-Hydroxyquinoline-Amino Acid Hybrids and Their Half-Sandwich Rh and Ru Complexes: Synthesis, Anticancer Activities, Solution Chemistry and Interaction with Biomolecules” (International Journal of Molecular Sciences, 2021)
